According to the CheMixHub viscosity set:
Values joined by “and” are separate entries in the source; they are usually repeats but may differ in a detail not shown here. Equal values may be shown once. ± gives the uncertainty stated by the source. One block for each molecule: values may come before it.

Compound: CC1OC(C)OC(C)O1 (centres undefined)
- viscosity (293.15 K, 101.3 kPa): 1.224 ± 0.023 mPa·s

Compound: CCC(O)CO (centres undefined)
- viscosity (298.15 K, 100 kPa): 51.63 ± 1.1 mPa·s
- viscosity (298.15 K, 101 kPa): 52.8 ± 0.27 mPa·s
- viscosity (303.15 K, 100 kPa): 37.66 ± 0.78 mPa·s
- viscosity (303.15 K, 101 kPa): 38.71 ± 0.25 mPa·s
- viscosity (308.15 K, 100 kPa): 28.44 ± 0.59 mPa·s
- viscosity (308.15 K, 101 kPa): 29.48 ± 0.19 mPa·s
- viscosity (313.15 K, 100 kPa): 21.59 ± 0.45 mPa·s
- viscosity (313.15 K, 101 kPa): 22.86 ± 0.15 mPa·s
- viscosity (318.15 K, 100 kPa): 16.74 ± 0.35 mPa·s
- viscosity (323.15 K, 100 kPa): 13.22 ± 0.27 mPa·s
- viscosity (323.15 K, 101 kPa): 12.85 ± 0.77 mPa·s

Compound: CCCBr
- viscosity (293.15 K, 101 kPa): 0.531 ± 0.011 mPa·s
- viscosity (303.15 K, 101 kPa): 0.486 ± 0.011 mPa·s
- viscosity (308.15 K, 101 kPa): 0.436 ± 0.0038 mPa·s
- viscosity (313.15 K, 101 kPa): 0.448 ± 0.01 mPa·s
- viscosity (323.15 K, 101 kPa): 0.415 ± 0.009 mPa·s

Compound: CCCC(=O)OC
- viscosity (298.15 K, 101 kPa): 0.546 ± 0.015 mPa·s
- viscosity (323.15 K, 101 kPa): 0.374 ± 0.01 mPa·s

- viscosity (293.15 K, 101.3 kPa): 88.48 ± 4.6 mPa·s
- viscosity (298.15 K, 101.3 kPa): 71.27 ± 2.4 mPa·s
- viscosity (303.15 K, 101.3 kPa): 56.48 ± 0.89 mPa·s
- viscosity (308.15 K, 101.3 kPa): 45.3 ± 1.1 mPa·s
- viscosity (313.15 K, 101.3 kPa): 36.92 ± 0.87 mPa·s
- viscosity (318.15 K, 101.3 kPa): 30.56 ± 0.72 mPa·s
- viscosity (323.15 K, 101.3 kPa): 25.33 ± 0.61 mPa·s
Compound: CCCCCCCC(=O)[O-].c1c[nH+]c[nH]1

- viscosity (303.15 K, 101 kPa): 3.665 ± 0.073 mPa·s
Compound: CCCCCCCCNCCCCCCCC

- viscosity (293.15 K, 101.33 kPa): 2.835 ± 0.016 mPa·s
- viscosity (298.15 K, 101 kPa): 2.691 ± 0.085 mPa·s
- viscosity (303.15 K, 101.33 kPa): 2.189 ± 0.013 mPa·s
- viscosity (308.15 K, 101 kPa): 2.208 ± 0.069 mPa·s
- viscosity (313.15 K, 101.33 kPa): 1.73 ± 0.01 mPa·s
- viscosity (318.15 K, 101 kPa): 1.819 ± 0.057 mPa·s
- viscosity (323.15 K, 101.33 kPa): 1.388 ± 0.009 mPa·s
Compound: CCCCOC(=O)c1ccccc1

- viscosity (303.15 K, 101 kPa): 1.826 ± 0.011 mPa·s
Compound: CCOC(=O)CCCBr

Compound: CN(CCO)CCO
- viscosity (293.15 K, 101 kPa): 101.2 ± 6.2 mPa·s
- viscosity (298.15 K, 101 kPa): 74.81 ± 4.5 mPa·s
- viscosity (298.15 K, 101.33 kPa): 77.19 ± 2.4 mPa·s and 77.19 ± 0.84 mPa·s
- viscosity (313.15 K, 101 kPa): 37.9 ± 2 mPa·s and 34.04 ± 0.41 mPa·s
- viscosity (323.15 K, 101 kPa): 24.7 ± 1.3 mPa·s and 21.53 ± 0.27 mPa·s

Compound: COCCOCCOCCOC
- viscosity (298.15 K, 101 kPa): 1.979 ± 0.06 mPa·s
- viscosity (298.15 K, 101.33 kPa): 1.95 ± 0.015 mPa·s
- viscosity (308.15 K, 101 kPa): 1.607 ± 0.05 mPa·s

Compound: ClCc1ccccc1
- viscosity (298.15 K, 101 kPa): 1.377 ± 0.033 mPa·s
- viscosity (303.15 K, 101 kPa): 1.112 ± 0.01 mPa·s

Compound: NCCN
- viscosity (293.15 K, 101 kPa): 1.52 ± 0.03 mPa·s and 1.62 ± 0.12 mPa·s and 1.54 ± 0.03 mPa·s
- viscosity (298.15 K, 101 kPa): 1.37 ± 0.03 mPa·s and 1.39 ± 0.03 mPa·s and 1.26 ± 0.034 mPa·s
- viscosity (303.15 K, 101 kPa): 1.16 ± 0.03 mPa·s and 1.18 ± 0.03 mPa·s and 1.299 ± 0.01 mPa·s (2×)
- viscosity (303.15 K, 101.3 kPa): 1.29 ± 0.13 mPa·s
- viscosity (303.15 K, 101.33 kPa): 1.299 ± 0.01 mPa·s
- viscosity (308.15 K, 101.3 kPa): 1.167 ± 0.12 mPa·s
- viscosity (308.15 K, 101.33 kPa): 1.191 ± 0.01 mPa·s
- viscosity (313.15 K, 100 kPa): 0.7611 ± 0.0066 mPa·s
- viscosity (313.15 K, 101.3 kPa): 1.06 ± 0.11 mPa·s
- viscosity (313.15 K, 101.33 kPa): 1.08 ± 0.009 mPa·s
- viscosity (318.15 K, 101.3 kPa): 0.967 ± 0.097 mPa·s
- viscosity (318.15 K, 101.33 kPa): 0.986 ± 0.008 mPa·s
- viscosity (323.15 K, 101 kPa): 0.737 ± 0.02 mPa·s and 0.9042 ± 0.0074 mPa·s and 0.904 ± 0.007 mPa·s
- viscosity (323.15 K, 101.33 kPa): 0.904 ± 0.007 mPa·s
